Assay results taken from patent US6806377B1, “Preparation of metallocenes carrying a cyclopentadiene comprising a basic donor group” (The University of Leeds, priority 1999, dated 2004).
One block for each substance: values may come before it.

Columns and labels:
[1] = background statement; cited from earlier work
[2] = stability towards water, air, moisture and heat (qualitative statements); type: physicochemical; settings: for air / moisture stability: air and moisture
[3] = solubility in solvents (qualitative statements); type: physicochemical

Substance: titanocene dichloride
- stability in aqueous solution [1]: unstable

- air / moisture stability [2]: highly air and moisture sensitive
- solubility in aprotic, polar and non-polar solvents ([3]; solvents such as ether and toluene): soluble
Substance: (CpCH2CH2N(CH2)2)2)TiCl2 [Compound 1]

- thermal stability [2]: thermally stable
- air / moisture stability [2]: highly air sensitive
Substance: (Cp(CH2)2N(CH2)5)2TiMe2 [Compound 3]

- air / moisture stability [2]: air stable
- storage stability ([2]; storage of the protected titanocene): can be stored indefinitely
- solubility in a polar solvent ([3]; polar solvent such as methanol, water and acetonitrile): soluble
- water solubility ([3]; water): water soluble
Substance: (CpCH2CH2N(CH2)2(CH2)2)2TiCl2.2HCl [Compound 2]
